From patent US20240025880A1 (CHIESI FARMACEUTICI S.P.A., priority 2020, published 2024) come the findings set out here.

Read-outs that look alike come from different tables or passages of the source.

One test concerns the target T1, h P2X2/3 (Homo sapiens, UniProt P56373+Q9UBL9).
T1 construct: host or cells: cells not described; same protocol as the P2X3 assay
T1 sequence (P56373 1-397): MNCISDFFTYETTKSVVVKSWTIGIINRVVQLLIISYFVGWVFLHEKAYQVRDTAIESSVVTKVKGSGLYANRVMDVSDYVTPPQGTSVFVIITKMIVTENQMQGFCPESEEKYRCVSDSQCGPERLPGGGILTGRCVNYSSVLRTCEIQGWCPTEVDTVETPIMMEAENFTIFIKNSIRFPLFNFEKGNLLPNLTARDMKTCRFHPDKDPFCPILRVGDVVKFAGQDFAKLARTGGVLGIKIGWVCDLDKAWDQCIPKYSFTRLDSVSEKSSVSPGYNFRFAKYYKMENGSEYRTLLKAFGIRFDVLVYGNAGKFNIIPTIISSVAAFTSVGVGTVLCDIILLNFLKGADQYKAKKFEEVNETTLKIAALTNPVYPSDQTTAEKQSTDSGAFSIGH
T1 sequence (Q9UBL9 1-471): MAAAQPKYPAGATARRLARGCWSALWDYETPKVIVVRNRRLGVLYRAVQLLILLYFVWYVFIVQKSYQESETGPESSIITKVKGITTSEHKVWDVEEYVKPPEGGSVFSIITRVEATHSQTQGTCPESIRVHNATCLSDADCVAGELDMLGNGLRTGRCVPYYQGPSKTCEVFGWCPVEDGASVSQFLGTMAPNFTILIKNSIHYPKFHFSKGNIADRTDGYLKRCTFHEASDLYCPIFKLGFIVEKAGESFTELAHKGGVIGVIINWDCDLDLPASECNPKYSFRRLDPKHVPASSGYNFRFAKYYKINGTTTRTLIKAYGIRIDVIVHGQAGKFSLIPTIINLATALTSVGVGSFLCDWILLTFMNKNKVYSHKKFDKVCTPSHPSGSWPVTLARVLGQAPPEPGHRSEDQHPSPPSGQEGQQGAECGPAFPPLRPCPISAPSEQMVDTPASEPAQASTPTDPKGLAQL
The test can be described thus: In vitro electrophysiology assay for P2X2/3 (same protocol, 10 μM ATP agonist). The class given is cell-based. The note with it: Table 3, mean current seven seconds after agonist, read-out: h P2X2/3 (pIC50 range of activity) (converted). As for the experimental part:
Cells expressing P2X3 receptors were grown according to standard practice and maintained at 37° C. in a 5% humidified CO2 atmosphere. The cells were seeded into T175 flask 2 days prior to the day of the assay and dissociated from the flasks using TrypLE when grown to confluence of 80-90%. The dissociated cells were resuspended in serum free media at a cell density of 3×10^6 cells/ml and loaded onto the Sophion Qube automated patch-clamp system. The extracellular assay buffer contained 145 mM NaCl, 4 mM KCl, 2 mM CaCl2, 1 mM MgCl2, 10 mM HEPES, and 10 mM glucose at pH 7.4. The intracellular assay solution contained 140 mM CsF, 10 mM NaCl, 10 mM EGTA, 10 mM HEPES at pH 7.2. Agonist stock solutions were prepared in H2O and diluted in bath solution prior to use. All antagonists were prepared as 10 mM stock solutions in DMSO and diluted in bath solution prior to use. All experiments were performed under the whole-cell patch clamp configuration at room temperature with 384 individual cells being voltage clamped at −60 mV simultaneously on the Sophion Qube instrument. Two baseline responses were established with the application of α,β-MeATP (800 nM), with the subsequent agonist applications being washed out using extracellular assay buffer containing 0.5 U/ml apyrase. Following the second agonist application, antagonist was incubated in the absence of α,β-MeATP for 10 minutes. After antagonist preincubation, 800 nM α,β-MeATP and antagonist were co-administered to determine the inhibitory effect of the antagonist. One concentration of an antagonist was assessed against a single cell, with different concentrations of the antagonist applied to other cells on the 384 recording substrate. The control P2X3 current amplitude was taken from the peak current amplitude from the second agonist response prior to preincubation with antagonist. The peak P2X3 current amplitude in the presence of antagonist was used to calculate the inhibitory effect at each concentration of the antagonist according to the following equation: […]
In vitro Electrophysiology Assay for P2X2/3
Representative compound of the present invention have been also tested for P2X2/3 receptor.
The same assay protocol was used for the P2X2/3 assay as the P2X3 assay with two modifications: 1) 10 μM ATP was used as the agonist; and 2) the mean current amplitude was measured seven seconds after the application of agonist.

A further test has as its target T2, h P2X3 (Homo sapiens, UniProt P56373).
T2 sequence (P56373 1-397): T1 sequence (P56373 1-397)
The test can be described thus: In vitro electrophysiology assay for P2X3 (automated whole-cell patch clamp, α,β-MeATP agonist). The test is classed as cell-based. As for the experimental part:
In Vitro Electrophysiology Assay for P2X3
Cells expressing P2X3 receptors were grown according to standard practice and maintained at 37° C. in a 5% humidified CO2 atmosphere. The cells were seeded into T175 flask 2 days prior to the day of the assay and dissociated from the flasks using TrypLE when grown to confluence of 80-90%. The dissociated cells were resuspended in serum free media at a cell density of 3×10^6 cells/ml and loaded onto the Sophion Qube automated patch-clamp system. The extracellular assay buffer contained 145 mM NaCl, 4 mM KCl, 2 mM CaCl2, 1 mM MgCl2, 10 mM HEPES, and 10 mM glucose at pH 7.4. The intracellular assay solution contained 140 mM CsF, 10 mM NaCl, 10 mM EGTA, 10 mM HEPES at pH 7.2. Agonist stock solutions were prepared in H2O and diluted in bath solution prior to use. All antagonists were prepared as 10 mM stock solutions in DMSO and diluted in bath solution prior to use. All experiments were performed under the whole-cell patch clamp configuration at room temperature with 384 individual cells being voltage clamped at −60 mV simultaneously on the Sophion Qube instrument. Two baseline responses were established with the application of α,β-MeATP (800 nM), with the subsequent agonist applications being washed out using extracellular assay buffer containing 0.5 U/ml apyrase. Following the second agonist application, antagonist was incubated in the absence of α,β-MeATP for 10 minutes. After antagonist preincubation, 800 nM α,β-MeATP and antagonist were co-administered to determine the inhibitory effect of the antagonist. One concentration of an antagonist was assessed against a single cell, with different concentrations of the antagonist applied to other cells on the 384 recording substrate. The control P2X3 current amplitude was taken from the peak current amplitude from the second agonist response prior to preincubation with antagonist. The peak P2X3 current amplitude in the presence of antagonist was used to calculate the inhibitory effect at each concentration of the antagonist according to the following equation:
Percentage inhibition of P2X3=(P2X3 control peak amplitude−P2X3 antagonist peak amplitude)/P2X3 control peak amplitude)*100
Concentration-response curves were constructed from ten different concentrations with each concentration of antagonist tested on at least two individual cells. The concentration of the antagonist to inhibit P2X3 current by 50% (IC50) was determined by fitting the data with the following equation:
Y=a+[(b−a)/(1+10^((log c−x)d)]
Where ‘a’ is minimum response, ‘b’ is maximum response, ‘c’ is IC50 and ‘d’ is Hill slope.

The mark [1] stands for this setting: Table 2, 800 nM α,β-MeATP, peak current, read-out: h P2X3 (pIC50 range of activity) (converted).
[2] abbreviates: Table 3, 800 nM α,β-MeATP, peak current, read-out: h P2X3 (pIC50 range of activity) (converted).

As to `Cc1nnc(C(C)Nc2ncnc3c(OCC(F)F)cc(-c4ccc(F)cn4)cc23)s1` (single isomer, unassigned; enantiomer 1) [Example 6, Single enantiomer 1 of 8-(2,2-difluoroethoxy)-6-(5-fluoro-2-pyridyl)-N-[1-(5-methyl-1,3,4-thiadiazol-2-yl)ethyl]quinazolin-4-amine], the IC50 at h P2X2/3 was 3160 to 31600 nM; at h P2X3 (setting [1]), below 316 nM; on h P2X3 (setting [2]), below 316 nM.
As to `Cc1nc([C@@H](C)Nc2ncnc3c(S(=O)(=O)N(C)C)cc(-c4ccc(F)cc4)cc23)no1` (stereo in doubt) [Example 15, 6-(4-fluorophenyl)-N,N-dimethyl-4-((1-(5-methyl-1,2,4-oxadiazol-3-yl)ethyl)amino)quinazoline-8-sulfonamide], the IC50 on h P2X2/3 was 316 to 3160 nM; at h P2X3 (setting [1]), below 316 nM; on h P2X3 (setting [2]) it was below 316 nM.
With `Cc1ccc(CNc2ncnc3c(OCC(F)F)cc(-c4ccc(F)cc4)cc23)nn1` [Example 1, 8-(2,2-difluoroethoxy)-6-(4-fluorophenyl)-N-((6-methylpyridazin-3-yl)methyl)quinazolin-4-amine], the figures for the IC50 on h P2X2/3, at h P2X3 (setting [1]) and at h P2X3 (setting [2]) were 3160 to 31600 nM, below 316 nM and below 316 nM, respectively.
On to `C[C@@H](Nc1ncnc2c(OCC(F)F)cc(-c3ccc(F)cc3)cc12)c1cnc(C(F)(F)F)nc1` [Example 2, (R)-8-(2,2-difluoroethoxy)-6-(4-fluorophenyl)-N-(1-(2-(trifluoromethyl)pyrimidin-5-yl)ethyl)quinazolin-4-amine], for which the IC50 on h P2X2/3 is 316 to 3160 nM; on h P2X3 (setting [1]), below 316 nM; on h P2X3 (setting [2]) it was below 316 nM.
On to `Cc1cnc(-c2cc(OCC(F)F)c3ncnc(NCc4ccc(C)nn4)c3c2)nc1` [Example 9, 8-(2,2-difluoroethoxy)-N-[(6-methylpyridazin-3-yl)methyl]-6-(5-methylpyrimidin-2-yl)quinazolin-4-amine], for which the IC50 was 316 to 3160 nM at h P2X2/3, below 316 nM at h P2X3 (setting [1]) and below 316 nM at h P2X3 (setting [2]).
For `Cc1ccc([C@@H](C)Nc2ncnc3c(S(=O)(=O)N4CCC(F)(F)C4)cc(-c4ccc(F)cc4)cc23)nn1` [Example 16], the IC50 at h P2X2/3 was 316 to 3160 nM; at h P2X3 (setting [1]), below 316 nM; on h P2X3 (setting [2]) it was below 316 nM.
Take `Cc1nc([C@@H](C)Nc2ncnc3c(S(=O)(=O)N4CCC(F)(F)C4)cc(-c4ccc(F)cc4)cc23)no1` [Example 17, (R)-8-((3,3-difluoropyrrolidin-1-yl)sulfonyl)-6-(4-fluorophenyl)-N-(1-(5-methyl-1,2,4-oxadiazol-3-yl)ethyl)quinazolin-4-amine]: the figures for the IC50 at h P2X2/3, on h P2X3 (setting [1]) and on h P2X3 (setting [2]) were 316 to 3160 nM, below 316 nM and below 316 nM, respectively.
With `CNS(=O)(=O)c1cc(-c2ccc(F)cc2)cc2c(N[C@H](C)c3ccc(C)nn3)ncnc12` [Example 21, (R)-6-(4-fluorophenyl)-N-methyl-4-((1-(6-methylpyridazin-3-yl)ethyl)amino)quinazoline-8-sulfonamide], the IC50 on h P2X2/3 was 3160 to 31600 nM; on h P2X3 (setting [1]), below 316 nM; at h P2X3 (setting [2]) it was below 316 nM.
For the molecule `CNS(=O)(=O)c1cc(-c2ccc(F)cc2)cc2c(N[C@H](C)c3noc(C)n3)ncnc12` [Example 22, (R)-6-(4-fluorophenyl)-N-methyl-4-((1-(5-methyl-1,2,4-oxadiazol-3-yl)ethyl)amino)quinazoline-8-sulfonamide], the IC50 on h P2X2/3 was 3160 to 31600 nM; on h P2X3 (setting [1]), below 316 nM; on h P2X3 (setting [2]) it was below 316 nM.
Turning to `Cc1ccc([C@@H](C)Nc2ncnc3c([S+](C)[O-])cc(-c4ccc(F)cc4)cc23)nn1` (stereo partly drawn) [Example 27, 6-(4-fluorophenyl)-N-((R)-1-(6-methylpyridazin-3-yl)ethyl)-8-(methylsulfinyl)quinazolin-4-amine], the IC50 on h P2X2/3 is 316 to 3160 nM; at h P2X3 (setting [1]), below 316 nM; at h P2X3 (setting [2]), below 316 nM.
As for `C[C@@H](Nc1ncnc2c(OC3CCNC3=O)cc(-c3ccc(F)cc3)cc12)c1cnc(C(F)(F)F)nc1` (stereo partly drawn) [Example 34, 3-((6-(4-fluorophenyl)-4-(((R)-1-(2-(trifluoromethyl)pyrimidin-5-yl)ethyl)amino)quinazolin-8-yl)oxy)pyrrolidin-2-one], the IC50 was 316 to 3160 nM on h P2X2/3, below 316 nM on h P2X3 (setting [1]) and below 316 nM on h P2X3 (setting [2]).
With `COC(=O)C1(NC(=O)COc2cc(-c3ccc(F)cc3)cc3c(NCc4ccc(C)nn4)ncnc23)CC1` [Example 42, Methyl 1-(2-((6-(4-fluorophenyl)-4-(((6-methylpyridazin-3-yl)methyl)amino)quinazolin-8-yl)oxy)acetamido)cyclopropane-1-carboxylate], the IC50 at h P2X2/3 was 3160 to 31600 nM; on h P2X3 (setting [1]), 316 to 3160 nM; at h P2X3 (setting [2]), 316 to 3160 nM.
As for `COC(=O)N1CCC(COc2cc(-c3ccc(F)cc3)cc3c(NCc4ccc(C)nn4)ncnc23)C1` (centres unmarked) [Example 67, Methyl 3-[[6-(4-fluorophenyl)-4-[(6-methylpyridazin-3-yl)methylamino]quinazolin-8-yl]oxymethyl]pyrrolidine-1-carboxylate], on h P2X3 (setting [1]), the IC50 was 316 to 3160 nM.
As for `O=C(NC1CCOc2ccc(-c3ccc(F)cc3)cc21)c1cnc(C(F)(F)F)nc1` (centres unmarked) [comparative Example A, N-(6-(4-fluorophenyl)chroman-4-yl)-2-(trifluoromethyl)pyrimidine-5-carboxamide, reference compound], at h P2X3 (comparative example, read-out: activity on receptor P2X3 expressed as pIC50 (converted)), the IC50 was above 31600 nM.
